Experimental findings from patent US7022719B2, “Preventing and reversing the formation of advance glycosylation endproducts” (Alteon, Inc., priority 1995, dated 2006) are described below.

Where “and” joins values, the source holds several entries; their conditions need not be identical. Identical values can stand only once. Counter-ions that a name gives are not always drawn. Like-named read-outs stand apart in the source and are kept apart here. Some results are limits rather than exact numbers.

Data set [1] has as its system cross-linking of glycated bovine serum albumin (AGE-BSA) to rat tail tendon collagen. The experiment in a line: Cross-linking Inhibition Assay. The conditions noted are these: for IC50: inhibition of AGE-BSA cross-linking to collagen-coated plate.
Method: The following method was used to evaluate the ability of the compounds of the present invention to inhibit the cross-linking of glycated bovine serum albumin (AGE-BSA) to the rat tail tendon collagen-coated 96-well plate.
The blocking solution was removed from the wells by, washing the plate twice with PBS-'Tween 20 solution (0.05% Tween 20) using a NUNq-multiprobe or Dynatech ELISA-plate washer. Cross-linking of AGE-BSA (1 to 10 mg per well depending on the batch of AGE-BSA) to rat tail tendon collagen coated plate was performed with and without the testing ‘compound dissolved in PBS buffer at pH 7.4 at the desired concentrations by the, addition of 50 μl each of the AGE-BSA diluted in PBS or in the solution of test compound at 37° C. for 4 hours. Unbrowned BSA in PBS buffer with or without testing compound were added to the separate wells as the blanks. The un-cross-linked AGE-BSA was then removed by washing the wells three times with PBS-Tween buffer. The amount of AGE-BSA cross-linked to the tail tendon collagen-coated plate was then quantitated using a polyclonal antibody raised against AGE-RNase. After a one-hour incubation period, AGE antibody was removed by washing 4 times with PBS-Tween.
The bound AGE antibody was then detected with the addition of horseradish peroxidase-conjugated secondary antibody—goat anti-rabbit immunoglobulin and incubation for 30 minutes. […] The reaction was allowed for an additional 15 minutes and the absorbance was read at 410 nm in a Dynatech plate reader.
In data set [2] the test system is AGE-BSA crosslinked to collagen. The experiment in a line: Cross-link Breaking Assay (sandwich enzyme immunoassay). The data set is classed as biochemical. The following applies: for Breaking Anti-AGE: anti-AGE antibody; for Breaking Anti-BSA: anti-BSA antibody. Here is the method:
The present invention also involves a novel sandwich enzyme immunoassay used to ascertain the ability of test compounds to “break” or reverse already formed advanced glycosylation endproducts by detecting the breaking of AGE (Advanced glycosylation endproduct) moieties from AGE-crosslinked protein. This assay comprises: • a) incubation of AGE-modified bovine serum albumin (AGE BSA) on collagen-coated wells of microtiter plates for a period of 2–6 hours' at a temperature of 37° C.; • b) washing of the wells with PBS-Tween; • c) application of the test compounds to the washed wells of step b; • d) incubation of the test compounds applied to the washed wells for an additional 12–24 hours at a temperature of about 37° C.; and • e) detection of the AGE-breaking using an antibody raised against AGE-ribonuclease or cross-link breaking with an antibody against BSA.
In order to ascertain the ability of the compounds of the instant invention to “break” or reverse already formed advanced glycosylation endproducts, a novel sandwich enzyme immunoassay was developed which detects breaking of AGE (Advanced glycosylation endproduct) moieties from AGE-crosslinked protein. The assay utilizes collagen-coated 96 well microtiter plates that are obtained commercially. […] Following an incubation period of 16 hours (37° C.) cross-link-breaking is detected using an antibody raised against AGE-ribonuclease or with an antibody against BSA. […] Details of the assay are as follows:
Methods Preparation of Solutions and Buffers • 1. AGE-BSA stock solutions were prepared as follows. Sodium phosphate buffer (0.4 M) was prepared by dissolving 6 grams of monobasic sodium phosphate in 100 ml of distilled water, 7 grams of dibasic sodium phosphate (0.4 M) in 100 ml of distilled water and adjusting the pH of the dibasic solution to 7.4 with the monobasic solution. Sodium azide (0.02 grams) was added per 100 ml volume to inhibit bacterial growth. The BSA solution was prepared as follows: 400 mg of Type V BSA (bovine serum albumin) was added for each ml of sodium phosphate buffer (above). A 400 mM glucose solution was prepared by dissolving 7.2 grams of dextrose in 100 ml of sodium phosphate buffer (above). The BSA and glucose solutions were mixed 1:1 and incubated at 37° C. for 12 weeks. The pH of the incubation mixture was monitored weekly and adjusted to pH 7.4 if necessary. After 12 weeks, the AGE-BSA solution was dialyzed against PBS for 48 hours with four buffer changes, each at a 1:500 ratio of solution to dialysis buffer. Protein concentration was determined by the micro-Lowry method. The AGE-BSA stock solution was aliquoted and stored at −20° C. […] Working solutions for crosslinking and breaking studies were prepared as follows. Test compounds were dissolved in PBS and the pH was adjusted to pH 7.4 if necessary. AGE-BSA stock solution was diluted in PBS to measure maximum crosslinking and in the inhibitor solution for testing inhibitory activity of compounds. The concentration of AGE-BSA necessary to achieve the optimum sensitivity was determined by initial titration of each lot of AGE-BSA. • 3. Wash buffer (“PBS-Tween”) was, prepared as follows. PBS was prepared by dissolving the following salts in one liter of distilled water: NaCl, 8 grams; KC1, 0.2 gram, KH2PO4. […] Tween-20 was added to a final concentration of 0.05% (vol/vol). • 4. Substrates for detection of secondary antibody binding were prepared by diluting the HRP substrate buffer 1:10 in distilled water and mixing with ABTS chromogen 1:50 just prior to use. Assay Procedures • 1. Biocoat plates were blocked with 300 μl of “Superbloc”. Plates were blocked for one hour at room temperature and were washed with PBS-Tween three times with the Dynatech platewasher before addition of test reagents. • 2. Each experiment was set up in the following manner. The first three wells of the Biocoat plate were used for the reagent blank.

Where [3] appears, read: detection with anti-AGE antibody, read-out: IC50 (mM) Anti-AGE.
[4] abbreviates: detection with anti-BSA antibody, read-out: IC50 (mM) Anti-BSA.

`C#CC[n+]1ccsc1.[Br-]` yielded a melting point of 64 to 66 °C.

Consider `C#CC[n+]1cscc1C.[Br-]`, for which the melting point fell in the range of 213 to 215 °C.

In turn, `C#CC[n+]1csc(C)c1.[Br-]` returned a melting point of 127 to 129 °C.

Compound `C#CC[n+]1csc(C)c1C.[Br-]` yielded a melting point of 198 to 200 °C.

For the compound `C#CC[n+]1csc(CCO)c1C.[Br-]`, the melting point lay within 132 to 134 °C.

In turn, `Cc1c(CCO)sc[n+]1CC(=O)C(C)(C)C.[Br-]` yielded a melting point of 186 to 187 °C.

For the compound `Cc1sc[n+](CC(=O)c2cc(C(C)(C)C)c(O)c(C(C)(C)C)c2)c1C` (as salt: bromide) [3-(2-(3′,5′-di-tert-butyl-4′-hydroxypheny].)-2-oxoethyl]-4,5-dimethyl-thiazolium bromide], the melting point was 243 to 244 °C (dec.).

In the case of `C=Cc1sc[n+](CC(=O)c2cc(C(C)(C)C)c(O)c(C(C)(C)C)c2)c1C` (as salt: bromide) [3-(2-(3′,5′-tert-butyl-4′-hydroxyphenyl)-2-oxoethyl)-4-methyl-5-vinyl-thiazolium bromide], the melting point lay within 208 to 209 °C.

`COC(=O)c1ccc(NC(=O)C[n+]2csc(CCO)c2C)cc1O` (as salt: bromide) [3-(2-(4′-carbmethoxy-3′-hydroxyanilino)-2-oxoethyl]-4-methyl-5-(2′-hydroxyethyl)-thiazolium bromide] displayed a melting point of 222 to 223 °C.

As to `Cc1c[n+](CC(=O)c2cc(C(C)(C)C)c(O)c(C(C)(C)C)c2)cs1` (as salt: bromide) [3-[2-(3′,5′-di-tert-butyl-4′-hydroxyphenyl)-2-oxoethyl)-5-methyl-thiazolium bromide], the melting point fell in the range of 210 to 211 °C.

On to `COC(=O)c1ccc(NC(=O)C[n+]2csc(CCO)c2C)cc1O` [3-(2-(4′-carbmethoxy-3′-hydroxyanilino)-2-oxoethyl]-4-methyl-5-(2′-hydroxyethyl)-thiazolium bromide], for which, in data set [1], it took 1.76 mM to reach half-maximal inhibition (IC50). For the same compound, in data set [2] (at 10 mM), the “Breaking Anti-AGE” value is on record as 24% and the “Breaking Anti-BSA” value was 18%.

As to `COC(=O)C[n+]1ccsc1.[Br-]` [3-(2-Methoxy-2-oxoethyl)-thiazolium bromide], the half-maximal inhibitory concentration (IC50) in data set [1] worked out at 0.25 mM. In addition, in data set [2] (at 30 mM), the “Breaking Anti-AGE” value is given as 38% and the “Breaking Anti-BSA” value came to 41%.

`Cc1sc[n+](CC(N)=O)c1C.[Br-]` [3-(2-amino-2-oxoethyl)-4,5-dimethyl-thiazolium bromide] came in with an IC50 in data set [1] of 9.9 mM. Besides, in data set [2] (at 30 mM), the “Breaking Anti-AGE” value was 61% and the “Breaking Anti-BSA” value was 16%.

For `Cc1c(CCO)sc[n+]1CC(N)=O.[Br-]` [3-(2-amino-2-oxoethyl)-4-methyl-5-(2-hydroxyethyl) thiazolium bromide], the half-inhibitory concentration (IC50) in data set [1] turned out to be 1.42 mM; in data set [2] (setting [3]), 0.012 mM; in data set [2] (setting [4]), 0.12 mM. Also, in data set [2] (concentration not given), the “Breaking Anti-AGE” value amounted to 65%. Besides, the “Breaking Anti-BSA” value in data set [2] (concentration not given) was determined as 57%.

For the compound `Cc1csc[n+]1CC(N)=O.[Br-]` [3-(2-amino-2-oxoethyl)-4-methyl-thiazolium bromide], the IC50 is 0.7 mM in data set [1], 4.7 mM in data set [2] (setting [3]) and 38.6 mM in data set [2] (setting [4]). In addition, in data set [2] (at 30 mM), the “Breaking Anti-AGE” value amounted to 89%. Also, the “Breaking Anti-BSA” value in data set [2] (at 30 mM) stood at 44%.

Regarding `NC(=O)C[n+]1csc2ccccc21.[Br-]` [3-(2-amino-2-oxoethyl)-benzothiazolium bromide], the 50% inhibitory concentration (IC50) in data set [1] is 0.02 mM; in data set [2] (setting [3]), 0.4 mM; in data set [2] (setting [4]) it was 0.52 mM. The “Breaking Anti-AGE” value in data set [2] (concentration not given) was determined as 77%. Also, the “Breaking Anti-BSA” value in data set [2] (concentration not given) is reported as 65%.

In data set [1], `COC(=O)C[n+]1csc(C)c1.[Br-]` [3-(2-methoxy-2-oxoethyl)-5-methyl-thiazolium bromide] had an IC50 of 3.2 mM. In addition, in data set [2] (at 30 mM), the “Breaking Anti-AGE” value was 72% and the “Breaking Anti-BSA” value is 27%.

Regarding `COC(=O)C[n+]1csc2ccccc21.[Br-]` [3-(2-methoxy-2-oxoethyl)-benzothiazolium bromide], the IC50 is greater than 10 mM in data set [1], 1.2 mM in data set [2] (setting [3]) and 25.9 mM in data set [2] (setting [4]). Besides, the “Breaking Anti-AGE” value in data set [2] (at 30 mM) was 66%. Further, in data set [2] (at 30 mM), the “Breaking Anti-BSA” value was found to be 37%.

As for `Cc1sc[n+](CC(=O)c2ccccc2)c1C.[Br-]` [3-(2-phenyl-2-oxoethyl)-4,5-dimethylthiazolium bromide], the “Relative Cross-link Inhibition (at 10 mM)” value in data set [1] (at 10 mM) amounted to 37%. Also, the “Breaking Anti-AGE” value in data set [2] (at 30 mM) is listed as 56%/ND (30).

In data set [1], `Cc1c(CCO)sc[n+]1CC(=O)c1ccccc1.[Br-]` [3-(2-phenyl-2-oxoethyl)-4-methyl-5-(2-hydroxyethyl)-thiazolium bromide] registered an IC50 greater than 10 mM. In data set [2] (at 30 mM), the “Breaking Anti-AGE” value was found to be 67% and the “Breaking Anti-BSA” value is 13%. In data set [2] (setting [3]), the concentration for half-maximal inhibition (IC50) turned out to be 14.3 mM.

As to `C=Cc1sc[n+](CC(=O)c2ccccc2)c1C.[Br-]` [3-(2-phenyl-2-oxoethyl)-4-methyl-5-vinyl-thiazolium bromide], the melting point was in the range of 176 to 177 °C. In data set [2] (at 1 mM), the “Breaking Anti-AGE” value came to 62% and the “Breaking Anti-BSA” value worked out at 82%. Further, the IC50 in data set [2] (setting [4]) was found to be 0.1 mM.

As for `Cc1csc[n+]1CC(=O)c1ccccc1.[Br-]` [3-(2-phenyl-2-oxoethyl)-4-methylthiazolium bromide], the IC50 in data set [1] turned out to be 5.6 mM; in data set [2] (setting [3]) it was 0.23 mM; in data set [2] (setting [4]), 0.3 mM. Moreover, in data set [2] (at 30 mM), the “Breaking Anti-AGE” value was 68%. Further, in data set [2] (at 30 mM), the “Breaking Anti-BSA” value is given as 66%.

In turn, `CC(C)(C)C(=O)C[n+]1ccsc1.[Br-]` [3-(2-tert-butyl-2-oxoethyl)-thiazolium bromide] showed a melting point of 211 to 212 °C. Also, in data set [2] (at 10 mM), the “Breaking Anti-AGE” value was found to be 28% and the “Breaking Anti-BSA” value is reported as 37%.

Regarding `Cc1c(CCO)sc[n+]1Cc1ccccc1[N+](=O)[O-].[Br-]` [3-(2′-nitrobenzyl)-4-methyl-5-(2′-hydroxyethyl)-thiazolium bromide], the melting point lay in the range of 215 to 216 °C. In data set [2] (at 10 mM), the “Breaking Anti-AGE” value turned out to be 11% and the “Breaking Anti-BSA” value turned out to be 13%.

On to `COc1cccc(C[n+]2csc(CCO)c2C)c1.[Cl-]` [3-(3′-methoxybenzyl)-4-methyl-5-(2′-hydroxyethyl)-thiazolium chloride], for which the melting point fell in the range of 135 to 136 °C. Also, in data set [2] (at 10 mM), the “Breaking Anti-AGE” value is 4% and 14%; the “Breaking Anti-BSA” value is 19% and 25%.

As to `Cc1c[n+](CC(=O)c2cc(C(C)(C)C)c(O)c(C(C)(C)C)c2)cs1` [3-[2-(3′,5′-di-tert-butyl-4′-hydroxyphenyl)-2-oxoethyl)-5-methyl-thiazolium bromide], the half-maximal inhibitory concentration (IC50) in data set [1] amounted to 0.78 mM; in data set [2] (setting [3]) it was 3 mM. Besides, the results for the “Breaking Anti-AGE” value in data set [2] (at 1 mM) and in data set [2] (at 10 mM) were 65% and 48%, respectively. Moreover, the “Breaking Anti-BSA” value amounted to 69% in data set [2] (at 1 mM) and 49% in data set [2] (at 10 mM).

On to `Cc1c(CCOCc2c(Cl)cccc2Cl)sc[n+]1N.Cc1cc(C)c(S(=O)(=O)[O-])c(C)c1` [3-amino-4-methyl-5-(2(2′,6′-dichlorobenzyloxy)ethyl]-thiazolium mesitylenesulfonate], for which the “Relative Cross-link Inhibition” value in data set [1] (3 mM) is given as 26.5% (3 mm). Also, in data set [2] (at 10 mM), the “Breaking Anti-AGE” value stood at 31% and the “Breaking Anti-BSA” value turned out to be 54%.

The melting point is the temperature of the solid-liquid transition. For orientation: IC50 means the concentration that inhibits the measured activity by half.
